Source: patent US9765074B2, “Inhibitors of the renal outer medullary potassium channel” (Merck Sharp & Dohme Corp., priority 2013, dated 2017)

Molecular target: T1, hROMK (hKir1.1) (Homo sapiens, UniProt P48048)
T1 construct: expressed in transfected cells
T1 sequence (P48048 1-391): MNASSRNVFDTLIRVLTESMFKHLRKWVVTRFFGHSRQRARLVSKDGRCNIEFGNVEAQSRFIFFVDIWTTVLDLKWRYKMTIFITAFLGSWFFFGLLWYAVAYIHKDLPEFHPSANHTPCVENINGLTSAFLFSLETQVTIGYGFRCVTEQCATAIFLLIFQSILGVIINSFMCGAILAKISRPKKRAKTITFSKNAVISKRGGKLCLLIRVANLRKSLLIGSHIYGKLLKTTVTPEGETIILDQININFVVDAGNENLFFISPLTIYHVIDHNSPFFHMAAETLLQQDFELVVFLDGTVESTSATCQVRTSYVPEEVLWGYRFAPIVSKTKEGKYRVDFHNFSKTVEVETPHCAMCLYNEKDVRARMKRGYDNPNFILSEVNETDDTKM
Experiment: Thallium Flux Assay (ROMK channel functional thallium flux, FLIPR-Tetra)
Type: cell-based
Conditions: HEK293 cells stably expressing hROMK (hKir1.1); 30 min compound incubation
Procedure, shortened: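 Thallium flux read by FluxOR fluorescence ([…]) for ~10 min after adding 3 mM Tl+/0.3 mM K+ final. Stable HEK-hKir1.1 cells were dye-loaded 90 min, exposed to compound 30 min at room temperature in ouabain/probenecid buffer; IC50 relative to a 3 μM control inhibitor.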

IC50	Structure (SMILES)
20 nM	CC1=C(N2CC(O)C3(CCN(CCc4ccc(-n5cnnn5)nc4)CC3)C2=O)COC1=O (single isomer, unassigned) [Example 245, 4-hydroxy-2-(4-methyl-5-oxo-2,5-dihydrofuran-3-yl)-1-oxo-8-{2-[6-(1H-tetrazol-1-yl)pyridin-3-yl]ethyl}-2-aza-8-azoniaspiro[4.5]decane]
100 nM	COC1CN(CCc2ccc(-n3cnnn3)nn2)CCC12CCN(C1=C(C)C(=O)OC1)C2=O (single isomer, unassigned) [Example 257, 6-methoxy-2-(4-methyl-5-oxo-2,5-dihydrofuran-3-yl)-8-{2-[6-(1H-tetrazol-1-yl)pyridazin-3-yl]ethyl}-2,8-diazaspiro[4.5]decan-1-one]
120 nM	COC1CN(CCc2ccc(-n3cnnn3)nn2)CCC12CCN(C1=C(C)C(=O)OC1)C2=O (single isomer, unassigned) [Example 258, 6-methoxy-2-(4-methyl-5-oxo-2,5-dihydrofuran-3-yl)-8-{2-[6-(1H-tetrazol-1-yl)pyridazin-3-yl]ethyl}-2,8-diazaspiro[4.5]decan-1-one]
100 nM	COC1CN(CCc2nnc(-n3cnnn3)cc2C)CCC12CCN(C1=C(C)C(=O)OC1)C2=O (single isomer, unassigned) [Example 259, 6-methoxy-2-(4-methyl-5-oxo-2,5-dihydrofuran-3-yl)-8-{2-[4-methyl-6-(1H-tetrazol-1-yl)pyridazin-3-yl]ethyl}-2,8-diazaspiro[4.5]decan-1-one]
120 nM	COC1CN(CCc2nnc(-n3cnnn3)cc2C)CCC12CCN(C1=C(C)C(=O)OC1)C2=O (single isomer, unassigned) [Example 260, 6-methoxy-2-(4-methyl-5-oxo-2,5-dihydrofuran-3-yl)-8-{2-[4-methyl-6-(1H-tetrazol-1-yl)pyridazin-3-yl]ethyl}-2,8-diazaspiro[4.5]decan-1-one]
10 nM	CC1=C(N2CCC3(CCN(CCc4ccc(-n5cnnn5)nn4)CC3F)C2=O)COC1=O (single isomer, unassigned) [Example 265, 6-fluoro-2-(4-methyl-5-oxo-2,5-dihydrofuran-3-yl)-8-{2-[6-(1H-tetrazol-1-yl)pyridazin-3-yl]ethyl}-2,8-diazaspiro[4.5]decan-1-one]
10 nM	CC1=C(N2CCC3(CCN(CCc4ccc(-n5cnnn5)nn4)CC3F)C2=O)COC1=O (single isomer, unassigned) [Example 266, 6-fluoro-2-(4-methyl-5-oxo-2,5-dihydrofuran-3-yl)-8-{2-[6-(1H-tetrazol-1-yl)pyridazin-3-yl]ethyl}-2,8-diazaspiro[4.5]decan-1-one]
10 nM	CC1=C(N2CCC3(CCN(CCc4nnc(-n5cnnn5)cc4C)CC3F)C2=O)COC1=O (single isomer, unassigned) [Example 267, 6-fluoro-2-(4-methyl-5-oxo-2,5-dihydrofuran-3-yl)-8-{2-[4-methyl-6-(1H-tetrazol-1-yl)pyridazin-3-yl]ethyl}-2,8-diazaspiro[4.5]decan-1-one]
10 nM	CC1=C(N2CCC3(CCN(CCc4nnc(-n5cnnn5)cc4C)CC3F)C2=O)COC1=O (single isomer, unassigned) [Example 268, 6-fluoro-2-(4-methyl-5-oxo-2,5-dihydrofuran-3-yl)-8-{2-[4-methyl-6-(1H-tetrazol-1-yl)pyridazin-3-yl]ethyl}-2,8-diazaspiro[4.5]decan-1-one]
10 nM	CC1=C(N2C=CC3(CCN([C@@H](C)Cc4ccc(-n5cnnn5)nn4)CC3)C2=O)COC1=O (single isomer, unassigned) [Example 272]
4 nM	CC1=C(N2C=CC3(CCN([C@H](C)Cc4ccc(-n5cnnn5)nn4)CC3)C2=O)COC1=O (single isomer, unassigned) [Example 273]
10 nM	CC1=C(N2C=CC3(CCN([C@@H](C)Cc4nnc(-n5cnnn5)cc4C)CC3)C2=O)COC1=O (single isomer, unassigned) [Example 274]
4 nM	CC1=C(N2C=CC3(CCN([C@H](C)Cc4nnc(-n5cnnn5)cc4C)CC3)C2=O)COC1=O (single isomer, unassigned) [Example 275]
